Measurements taken from patent US12447153B2, “HER2 mutation inhibitors” (Array BioPharma Inc., priority 2021, dated 2025).

Assays:
ErbB2 WT = ErbB2 WT (Homo sapiens (Human), UniProt P04626); assay: ErbB Enzyme Assay (HTRF KinEASE-TK), Assay 2; type: biochemical
EGFR = EGFR (Homo sapiens (Human), UniProt P00533); assay: ErbB Enzyme Assay (HTRF KinEASE-TK), Assay 3; type: biochemical
[1] = molecular target: ErbB2 with Exon 20 YVMA insertion (HER2-YVMA) (Homo sapiens (Human), UniProt P04626, INS775YVMA); assay: Cellular Phosphorylation Assay, Assay 4 (constitutive ErbB2 phosphorylation, NIH 3T3 cells); type: cell-based
EGFR wild type (EGFR WT) = EGFR wild type (EGFR WT) (Homo sapiens (Human), UniProt P00533); assay: Cellular Phosphorylation Assay, Assay 5 (EGF-stimulated EGFR phosphorylation, NIH 3T3 cells); type: cell-based
BCRP = BCRP (Homo sapiens (Human), UniProt Q9UNQ0); assay: BCRP MDCKII efflux assay (Assay 7); type: in vitro ADME; conditions: dog; efflux ratio Papp(B-A)/Papp(A-B), BCRP MDCKII cells; read-out: Assay 7 Pe Ratio
Protocol: Assay conditions included with and without the BCRP-specific inhibitor, KO143, at a concentration of 0.3 μM to ascertain the contribution of BCRP to the efflux value of the test compound.
Final organic concentration in the assay was 1%.

MDR1 (P-gp) = MDR1 (P-gp) (Homo sapiens (Human), UniProt P08183); assay: in vitro; conditions: pig, LLC-PK1
Protocol: Both LLC-PK1 and MDR1 transfected LLC-PK1 cells were cultured and plated according to manufacturer's recommendations with the exception that the passage media contained only 2% fetal bovine serum so as to extend passage time out to seven days.
Both positive and negative controls were used to assess functionality of P-gp or BCRP efflux in the assays. Stock solutions for assay controls and the test article were prepared in DMSO for final test concentrations of 10 μM and 1 μM, respectively. Final organic concentration in the assay was 1%. All dosing solutions contained 10 μM lucifer yellow to monitor LLC PK1 or MDCKII cell monolayer integrity.
For the apical to basolateral determination (A to B), 75 μL of the test article in transport buffer were added to the apical side of the individual transwells and 250 μL of basolateral media, without compound or lucifer yellow, were added to each well. For the basolateral to apical determination (B to A), 250 μL of test article in transport buffer were added to each well and 75 μL transport buffer, without compound or lucifer yellow, were added to each transwell. All tests were performed in triplicate, and each compound was tested for both apical to basolateral and basolateral to apical transport. The plates were incubated for 2 hours on a Lab-Line Instruments Titer Orbital Shaker (VWR, West Chester, PA) at 50 rpm and 37° C. with 5% CO2. All culture plates were removed from the incubator, 50 μL of media were removed from the apical and basolateral portion of each well, and added to 150 μL of 1 μM labetalol in 2:1 acetonitrile (ACN): H2O, v/v.
The plates were read using a Molecular Devices (Sunnyvale, CA) Gemini Fluorometer to evaluate the lucifer yellow concentrations at excitation/emission wavelengths of 425/535 nm. These values were accepted when found to be below 2% for apical to basolateral and 5% basolateral to apical flux across the MDR1-transfected LLC-PK1 or BCRP-transfected MDCKII cell monolayers. The plates were sealed, and the contents of each well analyzed by LC MS/MS. The compound concentrations were determined from the ratio of the peak areas of the compound to the internal standard (labetalol) in comparison to the dosing solution.
The LC-MS/MS system was comprised of an HTS-PAL autosampler (Leap Technologies, Carrboro, NC), an HP1200 HPLC (Agilent, Palo Alto, CA), and a MDS Sciex 4000 Q Trap system (Applied Biosystems, Foster City, CA). […] The total run time, including re-equilibration, for a single injection was 1.2 minutes. Mass spectrometric detection of the analytes was accomplished using the ion spray positive mode. Analyte responses were measured by multiple reaction monitoring (MRM) of transitions unique to each compound (the protonated precursor ion and selected product ions for each test article and m/z 329 to m/z 162 for labetalol, the internal standard).
An efflux ratio is calculated from the mean apical to basolateral (A-B) Papp data and basolateral to apical (B-A) Papp data: Efflux ratio=Papp(B−A)/Papp(A−B)

[2] = EGF-stimulated EGFR WT phosphorylation
[3] = cellular ErbB2 YVMA phosphorylation
[4] = cellular EGFR WT phosphorylation, EGF-stimulated

ErbB2 WT, sequence (P04626 23-1255): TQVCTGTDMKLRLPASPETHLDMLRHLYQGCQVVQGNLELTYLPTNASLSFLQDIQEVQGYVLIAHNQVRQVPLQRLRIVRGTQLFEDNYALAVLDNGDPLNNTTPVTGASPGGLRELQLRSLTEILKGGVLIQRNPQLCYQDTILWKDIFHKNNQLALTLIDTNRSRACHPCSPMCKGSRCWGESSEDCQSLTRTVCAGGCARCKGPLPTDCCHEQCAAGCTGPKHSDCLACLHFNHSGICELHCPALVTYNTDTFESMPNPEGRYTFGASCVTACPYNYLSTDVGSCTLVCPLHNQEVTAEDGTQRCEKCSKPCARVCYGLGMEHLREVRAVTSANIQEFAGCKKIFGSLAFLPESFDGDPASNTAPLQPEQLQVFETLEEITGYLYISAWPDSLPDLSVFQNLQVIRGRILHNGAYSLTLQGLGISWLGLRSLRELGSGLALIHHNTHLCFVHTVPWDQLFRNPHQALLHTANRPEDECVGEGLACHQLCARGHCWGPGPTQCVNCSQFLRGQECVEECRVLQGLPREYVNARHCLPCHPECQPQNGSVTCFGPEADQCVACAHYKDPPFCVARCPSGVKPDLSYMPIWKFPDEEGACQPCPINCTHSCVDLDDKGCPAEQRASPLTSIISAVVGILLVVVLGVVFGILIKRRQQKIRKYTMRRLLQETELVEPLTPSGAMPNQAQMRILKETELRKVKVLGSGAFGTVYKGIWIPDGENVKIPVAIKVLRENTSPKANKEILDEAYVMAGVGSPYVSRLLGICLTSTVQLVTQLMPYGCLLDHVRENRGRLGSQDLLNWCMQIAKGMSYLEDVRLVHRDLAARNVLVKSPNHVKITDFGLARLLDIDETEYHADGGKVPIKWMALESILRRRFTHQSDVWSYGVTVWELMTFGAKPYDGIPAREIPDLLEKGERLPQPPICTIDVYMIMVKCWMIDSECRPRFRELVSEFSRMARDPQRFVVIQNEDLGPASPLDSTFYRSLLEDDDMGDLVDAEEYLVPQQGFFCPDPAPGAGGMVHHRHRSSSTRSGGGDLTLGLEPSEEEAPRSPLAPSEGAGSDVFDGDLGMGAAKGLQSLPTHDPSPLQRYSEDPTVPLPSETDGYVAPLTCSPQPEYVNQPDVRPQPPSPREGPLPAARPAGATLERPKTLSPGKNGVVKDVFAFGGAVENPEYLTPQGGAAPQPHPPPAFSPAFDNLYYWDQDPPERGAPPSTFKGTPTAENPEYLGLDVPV
ErbB2 with Exon 20 YVMA insertion (HER2-YVMA), sequence (P04626 other isoform, or with tags, fused parts or gaps ins YVMA behind 775): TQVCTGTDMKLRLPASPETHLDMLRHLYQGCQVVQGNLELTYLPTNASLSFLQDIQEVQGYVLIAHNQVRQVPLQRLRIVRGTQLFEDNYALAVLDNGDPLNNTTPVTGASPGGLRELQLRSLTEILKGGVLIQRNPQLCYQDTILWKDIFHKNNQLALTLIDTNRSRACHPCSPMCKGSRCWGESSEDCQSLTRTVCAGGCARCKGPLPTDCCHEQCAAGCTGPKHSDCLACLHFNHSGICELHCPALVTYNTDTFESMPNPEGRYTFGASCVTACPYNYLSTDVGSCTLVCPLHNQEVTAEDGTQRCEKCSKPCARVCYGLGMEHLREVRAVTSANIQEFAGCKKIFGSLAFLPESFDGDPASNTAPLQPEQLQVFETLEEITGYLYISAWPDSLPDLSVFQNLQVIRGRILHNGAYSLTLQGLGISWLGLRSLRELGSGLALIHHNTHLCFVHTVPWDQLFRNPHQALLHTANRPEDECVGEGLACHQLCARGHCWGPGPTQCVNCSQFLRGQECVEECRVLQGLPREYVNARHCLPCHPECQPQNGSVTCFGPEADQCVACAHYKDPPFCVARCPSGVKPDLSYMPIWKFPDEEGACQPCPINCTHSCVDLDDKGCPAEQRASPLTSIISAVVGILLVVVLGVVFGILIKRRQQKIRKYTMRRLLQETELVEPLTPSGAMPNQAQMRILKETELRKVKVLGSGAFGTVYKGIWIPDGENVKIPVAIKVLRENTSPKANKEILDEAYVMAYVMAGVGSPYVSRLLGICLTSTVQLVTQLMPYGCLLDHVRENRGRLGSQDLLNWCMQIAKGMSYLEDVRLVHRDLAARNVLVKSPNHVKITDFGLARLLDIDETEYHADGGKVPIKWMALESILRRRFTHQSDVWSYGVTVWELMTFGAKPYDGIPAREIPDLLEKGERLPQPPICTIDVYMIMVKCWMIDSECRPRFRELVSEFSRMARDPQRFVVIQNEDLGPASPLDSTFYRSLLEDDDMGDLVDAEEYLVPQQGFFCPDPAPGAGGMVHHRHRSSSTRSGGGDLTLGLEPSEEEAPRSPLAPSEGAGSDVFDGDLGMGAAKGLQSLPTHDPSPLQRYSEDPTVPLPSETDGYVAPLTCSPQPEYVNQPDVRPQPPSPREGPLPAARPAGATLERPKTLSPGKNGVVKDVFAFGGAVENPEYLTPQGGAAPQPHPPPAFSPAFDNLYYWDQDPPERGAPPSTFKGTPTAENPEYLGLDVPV
BCRP, sequence (Q9UNQ0 whole entry): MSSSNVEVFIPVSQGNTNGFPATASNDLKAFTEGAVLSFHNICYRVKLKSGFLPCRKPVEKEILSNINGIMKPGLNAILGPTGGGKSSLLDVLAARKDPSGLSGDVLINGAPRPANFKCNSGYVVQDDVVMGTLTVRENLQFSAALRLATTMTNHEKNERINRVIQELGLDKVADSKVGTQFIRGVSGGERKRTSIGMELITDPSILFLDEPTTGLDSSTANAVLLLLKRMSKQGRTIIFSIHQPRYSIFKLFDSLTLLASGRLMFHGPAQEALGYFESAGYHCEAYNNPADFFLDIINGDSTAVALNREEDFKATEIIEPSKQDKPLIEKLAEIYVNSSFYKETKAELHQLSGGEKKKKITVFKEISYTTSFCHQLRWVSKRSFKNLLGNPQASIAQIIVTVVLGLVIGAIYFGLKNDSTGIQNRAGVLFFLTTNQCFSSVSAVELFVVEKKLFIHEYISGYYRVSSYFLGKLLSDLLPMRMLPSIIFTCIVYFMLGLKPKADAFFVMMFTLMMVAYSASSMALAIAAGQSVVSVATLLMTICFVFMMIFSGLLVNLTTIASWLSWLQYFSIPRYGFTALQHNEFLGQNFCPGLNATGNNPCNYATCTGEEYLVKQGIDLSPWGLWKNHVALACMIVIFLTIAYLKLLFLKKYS
EGFR, sequence (P00533 25-1210): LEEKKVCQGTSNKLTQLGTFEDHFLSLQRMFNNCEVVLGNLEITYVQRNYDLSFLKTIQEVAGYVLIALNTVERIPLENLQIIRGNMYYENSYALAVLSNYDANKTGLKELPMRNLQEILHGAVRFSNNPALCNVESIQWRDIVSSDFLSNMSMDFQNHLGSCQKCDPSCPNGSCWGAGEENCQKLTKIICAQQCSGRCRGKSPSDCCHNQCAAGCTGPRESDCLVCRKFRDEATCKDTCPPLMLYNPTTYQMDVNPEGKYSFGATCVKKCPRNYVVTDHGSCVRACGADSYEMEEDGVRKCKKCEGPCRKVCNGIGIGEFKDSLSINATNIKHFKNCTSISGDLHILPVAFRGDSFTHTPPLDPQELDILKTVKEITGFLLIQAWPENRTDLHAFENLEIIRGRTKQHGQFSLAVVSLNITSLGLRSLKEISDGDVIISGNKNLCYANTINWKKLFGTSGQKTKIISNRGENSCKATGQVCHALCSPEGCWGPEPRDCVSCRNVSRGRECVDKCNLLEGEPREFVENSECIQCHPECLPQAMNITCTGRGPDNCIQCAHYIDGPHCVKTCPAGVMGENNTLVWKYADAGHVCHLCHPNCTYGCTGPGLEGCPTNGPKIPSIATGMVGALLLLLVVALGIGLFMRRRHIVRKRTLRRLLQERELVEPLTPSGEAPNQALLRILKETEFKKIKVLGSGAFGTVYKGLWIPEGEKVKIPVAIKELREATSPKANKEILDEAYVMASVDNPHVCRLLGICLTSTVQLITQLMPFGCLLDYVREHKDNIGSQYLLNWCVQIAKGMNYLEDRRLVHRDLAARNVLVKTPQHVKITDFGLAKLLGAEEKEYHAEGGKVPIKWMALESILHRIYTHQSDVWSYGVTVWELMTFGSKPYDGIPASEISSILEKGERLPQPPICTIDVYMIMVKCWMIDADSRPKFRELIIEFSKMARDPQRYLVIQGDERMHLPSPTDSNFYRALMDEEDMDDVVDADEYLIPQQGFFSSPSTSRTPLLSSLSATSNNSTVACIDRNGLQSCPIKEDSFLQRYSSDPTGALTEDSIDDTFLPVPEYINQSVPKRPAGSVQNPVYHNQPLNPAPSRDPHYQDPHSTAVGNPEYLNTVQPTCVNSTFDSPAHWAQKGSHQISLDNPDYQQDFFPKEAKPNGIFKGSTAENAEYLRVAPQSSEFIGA

| Structure (SMILES) | IC50 (ErbB2 WT; ErbB2 WT enzyme) [µM] | IC50 (EGFR; EGFR enzyme) [µM] | IC50 ([1]; ErbB2 YVMA phosphorylation) [µM] | IC50 (EGFR wild type (EGFR WT); [2]) [µM] | efflux ratio at 2 h, 1 µM (BCRP) | efflux ratio at 2 h, 1 µM (MDR1 (P-gp)) | IC50 (ErbB2 WT; ErbB2 WT enzyme assay) [µM] | IC50 (EGFR; EGFR enzyme assay) [µM] | IC50 [1, 3] [µM] | IC50 (EGFR wild type (EGFR WT); [4]) [µM] |
| --- | --- | --- | --- | --- | --- | --- | --- | --- | --- | --- |
| CC#CC(=O)N1CC[C@@H]2C[C@H]1CN2c1ccc2ncnc(Nc3ccc(Oc4ccn5ncnc5c4)c(C)c3F)c2n1 [Example 176, 1-((1 S,5R)-6-(4-((4-([1,2,4]triazolo[1,5-a]pyridin-7-yloxy)-2-fluoro-3-methylphenyl)amino)pyrido[3,2-d]pyrimidin-6-yl)-2,6-diazabicyclo[3.2.1]octan-2-yl)but-2-yn-1-one] | 0.0485 | 6.69 | 0.0244 | 3.62 | 2.4 | 1 |  |  |  |  |
| C=CC(=O)N1C[C@H]2C[C@@H]1CN(c1ccc3ncnc(Nc4cc(Cl)c(Oc5ccc6c(c5)ncn6C)cc4F)c3n1)C2 [Example 107, 1-((1S,5R)-3-(4-((5-chloro-2-fluoro-4-((1-methyl-1H-benzo[d]imidazol-5-yl)oxy)phenyl)amino)pyrido[3,2-d]pyrimidin-6-yl)-3,6-diazabicyclo[3.2.1]octan-6-yl)prop-2-en-1-one] | 0.237 | ≥ 10 | 0.0178 | ≥ 5 | 2.7 | 1.6 |  |  |  |  |
| C=CC(=O)N1CCN(c2ccc3ncnc(Nc4ccc(Oc5ccn6ncnc6c5)c(Cl)c4F)c3n2)C[C@@H]1C1CC1 [Example 287] |  |  |  |  | 1.7 | 1 | 0.0124 | 1.1 | 0.0098 | 1.96 |
| C=CC(=O)N1[C@@H]2CC[C@H]1CC(c1ccc3ncnc(Nc4ccc(Oc5ccn6ncnc6c5)c(C)c4F)c3n1)C2 (stereo partly drawn) [Example 369] |  |  |  |  | 4.3 | 1.1 | 0.0671 | 2.48 | 0.0224 | 1.36 |
| C=CC(=O)N1CC(c2ccc3ncnc(Nc4ccc(Oc5ccc6c(c5)ncn6C)c(C)c4F)c3n2)CC1C (stereo not drawn) [Example 124, 1-(4-(4-((2-fluoro-3-methyl-4-((1-methyl-1H-benzo[d]imidazol-5-yl)oxy)phenyl)amino)pyrido[3,2-d]pyrimidin-6-yl)-2-methylpyrrolidin-1-yl)prop-2-en-1-one] | 0.0299 | 3.9 | 0.0114 | 1.94 | 5.2 | 1.6 |  |  |  |  |
| C=CC(=O)N1CCCC(c2ccc3ncnc(Nc4ccc(Oc5cnc6c(c5)ncn6C)c(C)c4)c3n2)CC1 (stereo not drawn) [Example 403] |  |  |  |  | 4 | 2 | 0.0613 | 1.29 | 0.0134 | ≥ 5 |
| C=CC(=O)N1CCN(c2ccc3ncnc(Nc4cc(C)c(Oc5ccc6c(c5)ncn6C)cc4F)c3n2)C[C@H]1C(C)C [Example 254] |  |  |  |  | 2.4 | 1.3 | 0.0926 | 5.34 | 0.0232 | ≥ 5 |
| C=CC(=O)N1C[C@H](c2ccc3ncnc(Nc4ccc(Oc5ccc6c(c5)ncn6C)c(C)c4F)c3n2)CC[C@H]1C [Example 169, 1-((2R,5R)-5-(4-((2-fluoro-3-methyl-4-((1-methyl-1H-benzo[d]imidazol-5-yl)oxy)phenyl)amino)pyrido[3,2-d]pyrimidin-6-yl)-2-methylpiperidin-1-yl)prop-2-en-1-one] | 0.111 | 1.81 | 0.0236 | ≥ 5 | 2.1 | 1 |  |  |  |  |
| C=CC(=O)N1CCN(c2ccc3ncnc(Nc4cc(C)c(Oc5ccn6ncnc6c5)cc4F)c3n2)CC1(C)C [Example 73, 1-(4-(4-((4-([1,2,4]triazolo[1,5-a]pyridin-7-yloxy)-2-fluoro-5-methylphenyl)amino)pyrido[3,2-d]pyrimidin-6-yl)-2,2-dimethylpiperazin-1-yl)prop-2-en-1-one] | 0.0364 | 5.08 | 0.0289 | 2.42 | 4.3 | 1.1 |  |  |  |  |
| C=CC(=O)N1CCC(Oc2ccc3ncnc(Nc4ccc(Oc5ccn6ncnc6c5)c(C)c4)c3n2)CC1 [Example 1, 1-(4-((4-((4-([1,2,4]triazolo[1,5-a]pyridin-7-yloxy)-3-methylphenyl)amino)pyrido[3,2-d]pyrimidin-6-yl)oxy)piperidin-1-yl)prop-2-en-1-one] | 0.0336 | 4.43 | 0.0125 | 1.01 | 7.3 | 11.4 |  |  |  |  |
| C=CC(=O)N1CCCC(c2ccc3ncnc(Nc4ccc(Oc5ccc6c(c5)ncn6C)c(C)c4)c3n2)CC1 (stereo not drawn) [Example 121, 1-(4-(4-((3-methyl-4-((1-methyl-1H-benzo[d]imidazol-5-yl)oxy)phenyl)amino)pyrido[3,2-d]pyrimidin-6-yl)azepan-1-yl)prop-2-en-1-one] | 0.0308 | 5.57 | 0.0091 | 4.58 | 4 | 1.9 |  |  |  |  |
| C=CC(=O)N1CCN(c2ccc3ncnc(Nc4cc(Cl)c(Oc5ccn6ncnc6c5)cc4F)c3n2)C[C@@H]1C1CC1 [Example 286] |  |  |  |  | 2 | 1 | 0.0148 | ≥ 10 | 0.0165 | ≥ 5 |
| C=CC(=O)N1C[C@@H]2C[C@H]1CN2c1ccc2ncnc(Nc3ccc(Oc4ccc5c(c4)ncn5C)c(C)c3F)c2n1 [Example 84, 1-((1S,4S)-5-(4-((2-fluoro-3-methyl-4-((1-methyl-1H-benzo[d]imidazol-5-yl)oxy)phenyl)amino)pyrido[3,2-d]pyrimidin-6-yl)-2,5-diazabicyclo[2.2.1]heptan-2-yl)prop-2-en-1-one] | 0.041 | 0.221 | 0.0077 | 0.254 | 3.8 | 1.9 |  |  |  |  |
| C=CC(=O)N1CCN(c2ccc3ncnc(Nc4ccc(Oc5cnc6c(c5)ncn6C)c(C)c4F)c3n2)CC1(C)C [Example 247, 1-(4-(4-((2-fluoro-3-methyl-4-((3-methyl-3H-imidazo[4,5-b]pyridin-6-yl)oxy)phenyl)amino)pyrido[3,2-d]pyrimidin-6-yl)-2,2-dimethylpiperazin-1-yl)prop-2-en-1-one] | 0.0715 | ≥ 10 | 0.0089 | ≥ 5 | 1.9 | 0.8 |  |  |  |  |
| C=CC(=O)N1CCN(c2ccc3ncnc(Nc4cc(C)c(Oc5ccn6ncnc6c5)cc4F)c3n2)C[C@@H]1CC [Example 290] |  |  |  |  | 4.8 | 1.5 | 0.0536 | 8.71 | 0.0385 | ≥ 5 |
| C=CC(=O)N1CCC(Oc2nc3c(Nc4ccc(Oc5ccn6ncnc6c5)c(Cl)c4F)ncnc3cc2OC)CC1 [Example 39, 1-(4-((4-((4-([1,2,4]triazolo[1,5-a]pyridin-7-yloxy)-3-chloro-2-fluorophenyl)amino)-7-methoxypyrido[3,2-d]pyrimidin-6-yl)oxy)piperidin-1-yl)prop-2-en-1-one] | 0.0055 | 0.0493 | 0.0053 | 0.0468 | 2.6 | 2.3 |  |  |  |  |
| C=CC(=O)N1CCN(c2ccc3ncnc(Nc4ccc(Oc5cnc6c(c5)ncn6C)c(C)c4F)c3n2)C[C@@H]1C1CC1 [Example 167, (S)-1-(2-cyclopropyl-4-(4-((2-fluoro-3-methyl-4-((3-methyl-3H-imidazo[4,5-b]pyridin-6-yl)oxy)phenyl)amino)pyrido[3,2-d]pyrimidin-6-yl)piperazin-1-yl)prop-2-en-1-one] | 0.519 | ≥ 10 | 0.0251 | ≥ 5 | 1.7 | 0.9 |  |  |  |  |
| C=CC(=O)N1CCN(c2ccc3ncnc(Nc4cc(C)c(Oc5ccc6c(c5)ncn6C)cc4F)c3n2)CC1(C)C [Example 82, 1-(4-(4-((2-fluoro-5-methyl-4-((1-methyl-1H-benzo[d]imidazol-5-yl)oxy)phenyl)amino)pyrido[3,2-d]pyrimidin-6-yl)-2,2-dimethylpiperazin-1-yl)prop-2-en-1-one] | 0.0582 | 7.32 | 0.0126 | 4.4 | 3.9 | 2 |  |  |  |  |
| C=CC(=O)N1CCN(c2ccc3ncnc(Nc4ccc(Oc5cnc6c(c5)ncn6C)c(Cl)c4)c3n2)CC1(C)C [Example 249] | 0.0118 | 1.33 | 0.0087 | 2.05 | 5.9 | 1.4 |  |  |  |  |
| C=CC(=O)N1C2CC1CN(c1ccc3ncnc(Nc4cc(C)c(Oc5ccn6ncnc6c5)cc4F)c3n1)C2 [Example 43, 1-(3-(4-((4-([1,2,4]triazolo[1,5-a]pyridin-7-yloxy)-2-fluoro-5-methylphenyl)amino)pyrido[3,2-d]pyrimidin-6-yl)-3,6-diazabicyclo[3.1.1]heptan-6-yl)prop-2-en-1-one] | 0.12 | ≥ 10 | 0.0213 | ≥ 5 | 4.1 | 3 |  |  |  |  |
| C=CC(=O)N1C[C@H]2C[C@@H]1[C@H](c1ccc3ncnc(Nc4ccc(Oc5ccn6ncnc6c5)c(Cl)c4F)c3n1)C2 [Example 406] |  |  |  |  | 4.3 | 0.9 | 0.0087 | 0.336 | 0.0093 | 0.737 |
